{"source": "patent US10906946B2", "about": "“Thrombin inhibitors” (priority 2015, dated 2021)", "key": {"thrombin [1]": {"molecular_target": "T1, thrombin (Homo sapiens, UniProt P00734)", "T1 construct": "residues in the termini of the light chain; and in the autolysis loop and C-terminus of the heavy chain; purchased Chemo-Sero-Therapeutic Research Institute (Kaketsuken, Japan), as a gift, not bought", "assay": "Inhibition of thrombin fibrinogenolytic activity (fibrinogen clotting time)", "type": "biochemical", "method": "(§1) Thrombin amidolytic activity assays for all peptides were performed in 96-wells microtiter plates in 50 mM Tris buffer (pH 7.4) containing 100 mM NaCl and 1 mg/ml bovine serum albumin. Typically, 100 μl of peptide and 100 μl of thrombin were pre-incubated for different durations before 100 μl of S2238 was added to the reaction wells. The rates of formation of p-nitroaniline were followed by measuring the absorbance at 405 nm for 10 min with a Tecan InfinitePro M200 microplate reader from Tecan (Männedorf, Switzerland). Dose-response curves were fitted using the GraphPad Prizm software (San Diego, Calif., USA) to calculate IC50 values and Hill coefficients. To measure the inhibitory constants, different concentrations of S2238 were used and the residual velocities were determined using the Morrison's tight binding equation. Inhibition of thrombin fibrinogenolytic activity of peptides were tested by measuring absorbance at 650 nm using a Sunrise microplate reader from Tecan (Männedorf, Switzerland) as described previously [Koh C Y, et al., J Biol Chem 282: 29101-13 (2007)]. The selectivity of avathrin was examined against 13 serine proteases (FIG. 5). Effects of avathrin on the amidolytic activities of these serine proteases were determined using respective chromogenic substrates. Cleavage of avathrin by thrombin. Avathrin (150 μM) was incubated with thrombin (5 μM), in 50 mM Tris buffer (pH 7.4) containing 150 mM NaCl and 1 mg/ml BSA. After different incubation times, reactions were quenched with 1% TFA (pH 1.8) and loaded onto a Jupiter Proteo column (4 μm, 90 Å, 100×1.0 mm) attached to a Dionex nano-HPLC system from Thermo Fisher Scientific (Waltham, Mass., USA) and eluted using an acetonitrile gradient with 0.05% TFA and 99.95% MilliQ water as eluent A and 0.05% TFA, 19.95% MilliQ water and 80% ACN as eluent B. Masses of all peaks were measured to identify cleavage products, which were subsequently quantified by integrating the peaks and calculating the area under the curves. To measure the effect of different pre-incubation times on the thrombin inhibitory activity, amidolytic assays were performed for various incubation times (up to 36 h)."}, "thrombin [2]": {"molecular_target": "T1, thrombin", "assay": "Cleavage of peptide by thrombin (RP-HPLC, ESI-MS)", "type": "biochemical", "method": "A. Evaluation of avathrin cleavage by thrombin by HPLC chromatograms. Avathrin (150 μM) was incubated with thrombin (5 μM) for various times and the reaction mixtures were separated using RP-HPLC; the masses of the cleavage products were analyzed with ESI-MS. At 0 min (upper panel), a single peak corresponding to full length avathrin (mass 3139 Da) was identified. At 120 min (middle panel), two new peaks corresponding to N-terminal cleavage product (^1[…]^10 of SEQ ID NO: 1; mass 982 Da) and C-terminal cleavage product ([…] (SEQ ID NO: 4); mass 2176 Da) were identified in addition to avathrin peak. At 600 min (lower panel), two peaks corresponding to the N- and C-terminal cleaved products were observed while avathrin peak was not observed, indicating complete cleavage. B. Time-dependent cleavage of avathrin by thrombin. Relative percentages of avathrin, its N- and C-terminal cleavage products were quantified by calculating areas under the curve. Each data point is the mean±S.D. of at least three independent experiments. C. Effect of thrombin cleavage on inhibitory properties of avathrin. Avathrin was incubated with thrombin (0.81 nM) for up to 36 h, and assayed at different time points for its ability to inhibit thrombin amidolytic activity on the chromogenic substrate S2238. […]\nas §1, with “Typically, 100 μl of peptide and 100 μl of thrombin were pre-incubated for different durations before 100 μl of S2238 was added to the reaction wells.” left out, “Dose-response curves were fitted using the GraphPad Prizm software (San Diego, Calif., USA) to calculate IC50 values and Hill coefficients.” left out, “The selectivity of avathrin was examined against 13 serine proteases (FIG. 5).” left out, “Cleavage of avathrin by thrombin. Avathrin (150 μM) was incubated with thrombin (5 μM), in 50 mM Tris buffer (pH 7.4) containing 150 mM NaCl and 1 mg/ml BSA.” left out, “To measure the effect of different pre-incubation times on the thrombin inhibitory activity, amidolytic assays were performed for various incubation times (up to 36 h).” left out"}, "blood": {"system": "blood", "assay": "Anti-coagulation effect of peptides in blood tubes (visual clot formation)", "parameters": "species or system human (healthy volunteers)", "conditions": "room temperature", "method": "Individual peptides are dissolved in phosphate buffered saline to prepare 10× peptide solutions (ie. concentrations of peptides are 10 times higher than the final concentrations at which they are to be tested). 0.3 ml of the 10× peptide solutions are placed in blood tubes without any additives. Blood was drawn from healthy volunteers using syringes and immediately transferred to a 50 ml conical centrifuge tube (Falcon tube) before pipetting 2.7 ml of the blood into blood tubes with peptide solutions. Final concentrations of peptides are as stated in Table 5 and 6.\nBlood tubes with various peptides at different concentrations were left standing at room temperature until tested at designated times. At different time points, tubes were inverted several times and visually inspected for insoluble materials as indications of clot formation."}, "[3]": {"conditions": "final concentration 75 micromolar"}, "[4]": {"conditions": "final concentration 150 micromolar"}, "[5]": {"conditions": "final concentration 300 micromolar"}}, "note": "Read-outs that look alike come from different tables or passages of the source. Peptide text beside a SMILES is read from it.", "data": [{"smiles": "CC[C@H](C)[C@H](NC(=O)[C@H](CCCCN)NC(=O)[C@@H]1CCCN1C(=O)[C@@H](NC(=O)[C@H](C)NC(=O)[C@@H](NC(=O)[C@H](CCC(N)=O)NC(=O)[C@H](Cc1c[nH]cn1)NC(=O)CNC(=O)CNC(=O)[C@@H](N)CO)[C@@H](C)O)C(C)C)C(=O)N[C@@H](CO)C(=O)N[C@@H](CCCCN)C(=O)N[C@@H](CCC(N)=O)C(=O)NCC(=O)N[C@@H](CC(C)C)C(=O)NCC(=O)NCC(=O)N[C@@H](CC(=O)O)C(=O)N[C@@H](Cc1ccccc1)C(=O)N[C@@H](CCC(=O)O)C(=O)N[C@@H](CCC(=O)O)C(=O)N[C@H](C(=O)N1CCC[C@H]1C(=O)N[C@@H](CO)C(=O)N[C@@H](CC(=O)O)C(=O)N[C@@H](CCC(=O)O)C(=O)N[C@H](C(=O)N[C@H](C(=O)N[C@@H](CCC(=O)O)C(=O)O)[C@@H](C)CC)[C@@H](C)CC)[C@@H](C)CC", "note": "[Avathrin] (H-SGGHQTAVPKISKQGLGGDFEEIPSDEIIE-OH; N-terminus and C-terminus assumed)", "values": [{"measurement": "effect on fibrinogen clotting time / thrombin fibrinogenolytic activity", "setting": "thrombin [1]", "value": "prolonged fibrinogen clotting time in a dose-dependent manner"}, {"measurement": "effect on fibrinogen clotting time / thrombin fibrinogenolytic activity", "setting": "thrombin [1]; listed as avathrin", "value": "prolonged fibrinogen clotting times in a dose dependent manner"}, {"measurement": "time at which complete cleavage by thrombin was observed", "setting": "thrombin [2]; avathrin 150 μM, thrombin 5 μM", "value": 600, "unit": "min"}, {"measurement": "Time to observe clot formation", "setting": "blood; [3]", "value": "42 to 52", "unit": "h"}, {"measurement": "Time to observe clot formation", "setting": "blood; [4]", "value": "52 to 66", "unit": "h"}, {"measurement": "Time to observe clot formation", "setting": "blood; [5]", "value": "52 to 66", "unit": "h"}]}, {"smiles": "CC[C@H](C)[C@H](NC(=O)[C@H](C)NC(=O)[C@H](CC(=O)O)NC(=O)[C@H](CC(=O)O)NC(=O)[C@@H]1CCCN1C(=O)[C@@H](NC(=O)[C@H](CCC(=O)O)NC(=O)[C@H](CCC(=O)O)NC(=O)[C@H](Cc1ccccc1)NC(=O)[C@H](CC(=O)O)NC(=O)CNC(=O)[C@@H]1CCCN1C(=O)[C@@H]1CCCN1C(=O)[C@H](C)NC(=O)[C@@H](NC(=O)[C@H](CO)NC(=O)[C@H](Cc1ccc(O)cc1)NC(=O)[C@H](CCSC)NC(=O)[C@H](CCCCN)NC(=O)[C@@H]1CCCN1C(=O)[C@@H](NC(=O)[C@H](C)NC(=O)[C@H](CCCNC(=N)N)NC(=O)[C@@H](NC(=O)[C@H](C)NC(=O)[C@H](CCC(=O)O)NC(=O)[C@H](CC(=O)O)NC(=O)[C@@H](N)CO)C(C)C)[C@@H](C)CC)[C@@H](C)O)[C@@H](C)CC)C(=O)N[C@@H](CCC(=O)O)C(=O)N[C@@H](CCC(=O)O)C(=O)O", "note": "[Ultravariegin] (H-SDEAVRAIPKMYSTAPPGDFEEIPDDAIEE-OH; N-terminus and C-terminus assumed)", "values": [{"measurement": "effect on fibrinogen clotting time / thrombin fibrinogenolytic activity", "setting": "thrombin [1]", "value": "prolonged fibrinogen clotting times in a dose dependent manner"}, {"measurement": "time to complete cleavage by thrombin", "setting": "thrombin [2]; peptide incubated with thrombin (30:1)", "value": 18, "unit": "h"}, {"measurement": "Time to observe clot formation", "setting": "blood; [3]", "value": "91 to 101", "unit": "h"}, {"measurement": "Time to observe clot formation", "setting": "blood; [4]", "value": "101 to 139", "unit": "h"}, {"measurement": "Time to observe clot formation", "setting": "blood; [5]", "value": "101 to 139", "unit": "h"}]}]}
